Source: patent EP1131337B1 (DABUR PHARMA LTD., priority 1998, dated 2000)
≈ marks a conversion by molar mass, not a printed value.

Assays:
[1] = system: prostate cancer cells (DU 145); test: MTT cytotoxicity assay, prostate cancer; format: cell-based, human; conditions: 72 hours
Description: (§1) After 72 hours, the assay was terminated and percent cyotoxicities calculated.

[2] = system: lung cancer cells (L 132); test: MTT cytotoxicity assay, lung cancer; format: cell-based, human; conditions: 72 hours
Description: as §1

human leukemia (MOLT-4) = test: MTT cytotoxicity assay, leukemia; format: cell-based; conditions: 72 hours
Description: as §1

[3] = system: ovarian cancer cells (PA-1); test: MTT cytotoxicity assay, ovarian cancer; format: cell-based, human; conditions: 72 hours
Description: as §1

[4] = system: laryngeal cancer cells(HeP.2); test: MTT cytotoxicity assay, laryngeal cancer; format: cell-based, human; conditions: 72 hours
Description: as §1

[5] = system: colon cancer cells (HT29); test: MTT cytotoxicity assay, colon cancer; format: cell-based, human; conditions: 72 hours
Description: as §1

lymphoma cells (U937) = test: MTT cytotoxicity assay, lymphoma; format: cell-based, human; conditions: 72 hours
Description: as §1

[6] = system: P388 lymphocytic leukemia cells; conditions: Choi et al., Planta Medica 1988; cited from earlier work
human melanomas = conditions: athymic mice carrying human melanomas; Nature Medicine 1995, WO 96/29068; cited from earlier work

CC(C)C1CCC2(C(=O)O)CCC3(C)C(CCC4C5(C)CCC(=NOCc6ccc([N+](=O)[O-])cc6)C(C)(C)C5CCC43C)C12 (stereo not shown) [compound 1098]
ED50 Prostate DU145 [1]: 1.5 µg/mL (≈ 2.47 µM) | ED50 Lung L132 [2]: 1.3 µg/mL (≈ 2.14 µM) | ED50 Leukemia MOLT-4 (human leukemia (MOLT-4)): 0.5 µg/mL (≈ 0.824 µM) | ED50 Ovary PA-1 [3]: 0.9 µg/mL (≈ 1.48 µM) | ED50 Larynx Hep.2 [4]: 1.0 µg/mL (≈ 1.65 µM) | ED50 Colon HT-29 [5]: 2.6 µg/mL (≈ 4.28 µM) | ED50 Lymphoma 0 937 (lymphoma cells (U937)): 0.4 µg/mL (≈ 0.659 µM)

C=C(C)[C@@H]1CC[C@]2(C(=O)OC)CC[C@]3(C)[C@H](CC[C@@H]4[C@@]5(C)CC[C@H](O)C(C)(C)[C@@H]5CC[C@]43C)[C@@H]12 [betulinic acid methyl ester]
ED50 [6]: 6.8 µg/mL (≈ 14.4 µM)

C=C(C)[C@@H]1CC[C@]2(C(=O)O)CC[C@]3(C)[C@H](CC[C@@H]4[C@@]5(C)CC[C@H](O)C(C)(C)[C@@H]5CC[C@]43C)[C@@H]12 [betulinic acid]
toxicity (human melanomas): without toxicity

C=C(C)[C@@H]1CC[C@]2(C(=O)O)CC[C@]3(C)[C@H](CC[C@@H]4[C@@]5(C)CC[C@H](OC(C)=O)C(C)(C)[C@@H]5CC[C@]43C)[C@@H]12 [betulinic acid 3-monoacetate]
ED50 [6]: 10.5 µg/mL (≈ 21.1 µM)
